# Measured values taken from patent US20230121197A1, “ANTIBODIES SPECIFICALLY BINDING THE CARBOXYMETHYLATED CATALYTIC SUBUNIT OF PROTEIN PHOSPHATASE 2A” (Medizinische Universität Wien, priority 2020, published 2023).
# Tested on: LNCaP LCMT1 knockdown lines
# Test: Colony formation and cell viability (cell titer glo) in LCMT1 knockdown prostate cancer cells
# Format: cell-based, human
# Settings: colony formation (20 uM, 10-12 days) and cell viability (96 hours)
smiles,measurement,value
CNC(=O)c1ccc(N2C(=S)N(c3ccc(C#N)c(C(F)(F)F)c3)C(=O)C2(C)C)cc1F [enzalutamide],effect of LCMT1 knockdown on response to enzalutamide,decreased sensitivity
